Assay results reported in US4707485A, “Substituted te[1]trahydroisoquinoline derivatives having β-adrenergic receptor activity” (Smithkline Beckman Corporation, priority 1985, dated 1987).
Counter-ions that a name gives are not always drawn.

Biological target: T1, β-adrenergic receptors (Cavia porcellus, UniProt H0W3H1)
T1 construct: The ventricles and adipose tissue were carefully cut away to leave the atria as an intact pair; from tissue; host or cells: isolated guinea pig atria (intact pair)
Experiment: Inhibition of isoproterenol-induced enhancement of the rate of contraction of guinea pig atrial pairs in vitro (KB as β-antagonist)
Assay type: cell-based
Conditions: guinea pig atria, versus isoproterenol, KB from dose ratio of isoproterenol EC50, 37° C., read-out: receptor dissociation constant (KB) as a β-antagonist
Procedure: The β-blocking activity of the compounds of structure (I) can be assessed in a test for inhibition of isoproterenol-induced enhancement of the rate of contraction of guinea pig atrial pairs in vitro.
Inhibition of isoproterenol-induced enhancement of constricted guinea pig atria
A guinea pig (500-700 g) was injected with sodium pentobarbital (50 mg/kg, ip). When anesthetized, the heart was removed and placed in cold (5°-10° C.), oxygenated Krebs-Hensleit solution. The ventricles and adipose tissue were carefully cut away to leave the atria as an intact pair. A thread was tied to the apex of each atrium and the tissue suspended in a 50 ml tissue bath, attached to a force-displacement transducer. A diastolic tension of 1 g was maintained. Atrial contraction rate was measured using biotachometer, driven by the transducer amplifier.
A 30 minute stabilization period was allowed before obtaining the first dose response curve, during which time the tissue was washed several times with fresh solution. A concentration-response curve to isoprotererol was then determined, increasing agonist concentrations when the rate response to the previous dose had stabilized. After this determination, any β-antagonist activity of the test compound was measured via a concentration-response curve. […]

T1 sequence (H0W3H1 1-470): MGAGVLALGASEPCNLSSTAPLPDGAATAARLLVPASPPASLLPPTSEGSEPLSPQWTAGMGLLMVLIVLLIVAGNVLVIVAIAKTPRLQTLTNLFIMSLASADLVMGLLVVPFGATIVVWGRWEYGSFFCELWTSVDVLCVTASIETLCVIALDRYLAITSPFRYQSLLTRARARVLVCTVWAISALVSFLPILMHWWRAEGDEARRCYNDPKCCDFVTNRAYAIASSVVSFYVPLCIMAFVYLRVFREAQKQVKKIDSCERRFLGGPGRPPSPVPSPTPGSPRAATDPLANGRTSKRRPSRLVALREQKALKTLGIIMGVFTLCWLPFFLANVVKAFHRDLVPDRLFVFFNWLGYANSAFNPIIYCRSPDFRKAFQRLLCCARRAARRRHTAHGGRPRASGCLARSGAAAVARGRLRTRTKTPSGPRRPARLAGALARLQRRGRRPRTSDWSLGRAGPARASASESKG

Kb: 67 nM
SMILES: COc1cc(CC2NCCc3cc(Cl)c(Cl)cc32)cc(OC)c1OC (stereo not shown) [Example 1, 6,7-dichloro-1-(3,4,5-trimethoxybenzyl)-1,2,3,4-tetrahydroisoquinoline fumarate]
